Reference: patent US9724416B2, “Composition for improving or promoting hair growth containing, as active ingredients, photosensitizer irradiated with light and peptide, and method using same” (GWANGJU INSTITUTE OF SCIENCE AND TECHNOLOGY, priority 2012, dated 2017)
Entries after “also recorded” stand apart in the source; their conditions may differ.

Tests used:
C57BL/6N mouse [1] = test: Hair growth promoting effects using a mouse (first test); assay type: in vivo; conditions: for hair growth amounts compared to the control group: FIGS. 7 and 8 (day 10, day 12); for hair growth promoting effects with the naked eye compared to the untreated group: day 5 after sample treatment; for hair growth promoting effects compared to the untreated group: day 8 after sample treatment (FIG. 6B); for hair growth levels: until day 3, compared across groups incl. untreated
Method: (§1) ALA and ALA-peptide which were major test materials of the present invention were dissolved in pure water to a concentration of […] (100 ppm) to be used.
A 7-week-old C57BL/6N mouse (Jungang Lab. Animal Inc., KOR) was used for this study, and hair of the mouse's back was completely removed using a wax at the age of 49 days to 51 days at which the C57BL/6N mouse enters […] for the second time. In order to verify hair growth promoting effects of the test materials, it was treated once a day for 24 days. More particularly, ALA and the ALA-peptide were sprayed 3 times before LED radiation, and the LED treated groups were verified after being treated for 5 minutes.

C57BL/6N mouse [2] = test: Hair growth promoting effects using a mouse (second test); assay type: in vivo
Method: A 10-fold volume of primary distilled water was put into 100 g of Cimicifuga heracleifolia, Baikl skullcap, and Lance Asiabell dry matters, which were hot water extracted for 6 hours at 100° C. and were then filtered. The filtered extracts were pulverized through freeze-dried and then stored at 4° C. until used. The pulverized natural extracts were used in a mouse experiment at a concentration of 1 mg/ml.
as §1
A 7-week-old C57BL/6N mouse was used for this study, and hair of the mouse's back was completely removed using a wax at the age of 49 days to 51 days at which the C57BL/6N mouse enters […] for the second time. In order to verify hair growth promoting effects of the test materials, it was treated once a day for 24 days. More particularly, the ALA and ALA-peptide were sprayed 3 times before LED radiation, and the LED treated groups were verified after treated for 5 minutes.

Molecule	hair growth amounts compared to the control group (C57BL/6N mouse [1]; LED-Blue radiation)	hair growth promoting effects with the naked eye compared to the untreated group (C57BL/6N mouse [1]; LED-Blue radiation)	hair growth promoting effects compared to the untreated group (C57BL/6N mouse [1]; LED-Blue radiation)	hair growth promoting effects through continuous treatments (C57BL/6N mouse [1]; LED-Red radiation compared to LED-Blue radiation, FIGS. 9 to 14 (day 14 to day 24))	hair growth amounts compared to the control group (C57BL/6N mouse [1]; LED-Red radiation)	hair growth promoting effects with the naked eye compared to the untreated group (C57BL/6N mouse [1]; LED-Red radiation)	hair growth promoting effects compared to the untreated group (C57BL/6N mouse [1]; LED-Red radiation)	hair growth promoting effects compared to the untreated group (in words) (C57BL/6N mouse [2]; LED-Red radiation, day 9 after sample treatment)	hair growth amounts compared to the untreated group (C57BL/6N mouse [2]; LED-Red radiation, extracts 1 mg/ml)	hair growth levels compared to untreated group (C57BL/6N mouse [2]; without LED radiation, FIGS. 16 to 19 (day 0 to day 7))	hair loss phenomenon compared to other treated groups (C57BL/6N mouse [1]; LED-Blue radiation, day 30 of observation (FIG. 15))	hair growth levels (C57BL/6N mouse [1]; LED-Blue radiation)	hair growth levels (C57BL/6N mouse [1]; LED-Red radiation)
5-Aminolevulinic Acid (ALA)-Peptide (GHK) [ALA-peptide]	significant hair growth promoting effects	distinct differences	about 7 fold	more superior hair growth promoting effects than the LED-Blue+ALA-peptide treated group	significant hair growth promoting effects; also recorded: most superior hair growth promoting effect	distinct differences	about 10 fold	significant hair growth promoting effects	increasing effects in the significant hair growth amounts	little differences in hair growth levels	–	–	–
Cl.NCC(=O)CCC(=O)O [ALA, 5-aminolevulinic acid, reference compound]	–	–	–	–	–	–	–	–	–	–	considerable hair loss phenomenon	no differences in hair growth levels	no differences in hair growth levels
